Source: ChEMBL document CHEMBL4368895, “Incorporation of an intramolecular hydrogen bonding motif in the side chain of antimalarial benzimidazoles” (Medchemcomm, 2019)
In brackets after ≈: the same amount, converted by molar mass.

Tests used:
Hemozoin = test: Inhibition of beta-hematin formation assessed as reduction in hemozoin formation incubated for 5 hrs by NP40 detergent-based assay
[1] = Selectivity index, ratio of IC50 for cytotoxicity in CHO cells to IC50 for antiplasmodium activity against chloroquine-sensitive Plasmodium falciparum NF54 asexual blood stage forms infected in human erythrocytes; assay type: toxicity, cell-based; details: Chinese hamster, read-out: Ratio IC50
Plasmodium falciparum [2] = test: Antiplasmodium activity against chloroquine-sensitive Plasmodium falciparum NF54 asexual blood stage forms infected in human erythrocytes assessed as reduction in [3H]-hypoxanthine incorporation incubated for 48 hrs by liquid scintillation counting method; assay type: functional, organism-based
CHO = test: Cytotoxicity in CHO cells assessed as reduction in cell viability by MTT assay; assay type: cell-based; details: Cricetulus griseus
[3] = Kinetic solubility in pH 7.4 PBS at 0.125 to 8 mM incubated for 2 hrs by turbidimetric kinetic solubility assay; assay type: physicochemical; details: read-out: Kinetic_solubility
Plasmodium falciparum [4] = test: Antiplasmodium activity against multidrug resistant Plasmodium falciparum K1 asexual blood stage forms infected in human erythrocytes assessed as reduction in [3H]-hypoxanthine incorporation incubated for 48 hrs by liquid scintillation counting method; assay type: functional, organism-based

SMILES	IC50 (Hemozoin)	selectivity ratio [1]	IC50 (Plasmodium falciparum [2])	IC50 (CHO)	solubility kinetic at 2 h [3]	IC50 (Plasmodium falciparum [4])
CCN(CCNc1nc2ccccc2[nH]1)Cc1cc(Cl)cc(Cl)c1O	30 µM	125	0.4 µM	50 µM	160 µM (≈ 60.7 µg/mL)	1.4 µM
CCN(CCNc1nc2ccccc2[nH]1)Cc1cc(C#N)ccc1O	250 µM	52	0.968 µM	50 µM	160 µM (≈ 53.7 µg/mL)	> 10 µM
CCN(CCNc1nc2ccccc2[nH]1)Cc1cc(Cl)ccc1O	125 µM	228	0.11 µM	25.1 µM	160 µM (≈ 55.2 µg/mL)	0.762 µM
CCN(CCNc1nc2ccccc2[nH]1)Cc1cccc(F)c1O	161 µM	167	0.299 µM	50 µM	160 µM (≈ 52.5 µg/mL)	1.49 µM
CCN(CCNc1nc2ccccc2[nH]1)Cc1cccc(Cl)c1O	130 µM	96	0.521 µM	50 µM	160 µM (≈ 55.2 µg/mL)	1.25 µM
C[C@H]1[C@H](OC(=O)CCC(=O)O)O[C@@H]2O[C@@]3(C)CC[C@H]4[C@H](C)CC[C@@H]1[C@@]24OO3 [ARTESUNATE]	–	–	0.007 µM	–	–	–
CCN(CCNc1nc2ccccc2[nH]1)Cc1cc(C)ccc1O	4220 µM	60	0.408 µM	24.5 µM	> 200 µM	2.43 µM
CC[C@H]1CN2CCc3cc(OC)c(OC)cc3[C@@H]2C[C@@H]1C[C@H]1NCCc2cc(OC)c(OC)cc21 [EMETINE]	–	–	–	0.059 µM	–	–
CCN(CCNc1nc2ccccc2[nH]1)Cc1ccccc1O	452 µM	105	0.474 µM	50 µM	> 200 µM	2.66 µM
CCN(CCNc1nc2ccccc2[nH]1)Cc1cc(F)cc(F)c1O	68 µM	225	0.222 µM	50 µM	140 µM (≈ 48.5 µg/mL)	0.952 µM
CCN(CCNc1nc2ccccc2[nH]1)Cc1ccccc1	–	–	3.6 µM	–	140 µM (≈ 41.2 µg/mL)	1.88 µM
CCN(CCNc1nc2ccccc2[nH]1)Cc1ccc(Cl)cc1O	32 µM	273	0.079 µM	21.6 µM	160 µM (≈ 55.2 µg/mL)	0.335 µM
CCN(CCNc1nc2ccccc2[nH]1)Cc1cccnc1O	–	–	> 10 µM	50 µM	> 200 µM	> 10 µM
CCN(CCNc1nc2ccccc2[nH]1)Cc1cc(OC)ccc1O	489 µM	156	0.32 µM	50 µM	160 µM (≈ 54.5 µg/mL)	3.04 µM
